Measured values taken from US6358885B1, “Substituted phenylheterocyclic herbicides” (Mississippi State University, priority 1992, dated 2002).

Experiments:
Test in all cases: Test G preemergence/postemergence greenhouse plant response rating 0 to 100
yellow nutsedge = format: in vivo, Cyperus esculentus; details: Rate 125 g/ha, 0 to 100 scale
From the text: (§1) Seeds, rhizomes, or plant parts of alfalfa (Medicago ativa), annual bluegrass (Poa annua), bermudagrass (Cynodon dactylon), broadleaf signalgrass (Brachiaria plantaginea), common purslane (Portulaca oleracea), common ragweed (Ambrosia elatior), […] (Paspalum dilatatum), goosegrass (Eleusine indica), guineagrass (Panicum maximum), […] exaltata), johnsongrass (Sorghum halepense), large crabgrass (Digitaria sanguinalis), peanut (Arachis hypoagaea), pitted morningglory (Ipomoea lacunosa), purple nutsedge (Cyperus rotundus), sandbur (Cenchrus echinatus), smooth crabgrass (Digitaria ischaemum) and yellow nutsedge (Cyperus esculentus) were planted into greenhouse pots containing greenhouse planting medium. Each pot contained only one plant species. The test compound was dissolved in a non-phytotoxic solvent and applied preemergence and/or postemergence to the plants. Preemergence applications were made within one day of planting the seeds or plant parts. Postemergence applications were applied when the plants were in the two to four leaf stage (three to twenty cm). Test chemicals were dissolved in a non-phytotoxic solvent and applied preemergence and postemergence to the plants. Untreated control plants and treated plants were placed in the greenhouse and visually evaluated for injury at 13 to 21 days after herbicide application. […] A dash (-) response indicates no test result.

alfalfa = format: in vivo, Medicago ativa; details: 0 to 100 scale
From the text: as §1

sandbur = format: in vivo, Cenchrus echinatus; details: 0 to 100 scale
From the text: as §1

goosegrass = format: in vivo, Eleusine indica; details: 0 to 100 scale
From the text: as §1

bermudagrass = format: in vivo, Cynodon dactylon; details: 0 to 100 scale
From the text: as §1

common ragweed = format: in vivo, Ambrosia elatior; details: 0 to 100 scale
From the text: as §1

annual bluegrass = format: in vivo, Poa annua; details: 0 to 100 scale
From the text: as §1

pitted morningglory = format: in vivo, Ipomoea lacunosa; details: 0 to 100 scale
From the text: as §1

purple nutsedge = format: in vivo, Cyperus rotundus; details: Rate 125 g/ha, 0 to 100 scale
From the text: as §1

large crabgrass = format: in vivo, Digitaria sanguinalis; details: 0 to 100 scale
From the text: as §1

guineagrass = format: in vivo, Panicum maximum; details: 0 to 100 scale
From the text: as §1

peanut = format: in vivo, Arachis hypoagaea; details: 0 to 100 scale
From the text: as §1

common purslane = format: in vivo, Portulaca oleracea; details: 0 to 100 scale
From the text: as §1

dallisgrass = format: in vivo, Paspalum dilatatum; details: 0 to 100 scale
From the text: as §1

johnsongrass = format: in vivo, Sorghum halepense; details: 0 to 100 scale
From the text: as §1

smooth crabgrass = format: in vivo, Digitaria ischaemum; details: 0 to 100 scale
From the text: as §1

itchgrass = format: in vivo, Rottboellia exaltata; details: 0 to 100 scale
From the text: as §1

CCCOc1cc(-c2nn3c(c2Cl)CCCC3)c(F)cc1Cl [Compound 23]
40: Plant response rating, Goosegrass (goosegrass; PREEMERGENCE, Rate 250 g/ha)
50: Plant response rating, Bermudagrass (bermudagrass; PREEMERGENCE, Rate 250 g/ha) | Plant response rating, Cmn Purslane (common purslane; POSTEMERGENCE, Rate 250 g/ha)
70: Plant response rating, Large Crabgrass (large crabgrass; PREEMERGENCE, Rate 250 g/ha) | Plant response rating, Cmn Purslane (common purslane; POSTEMERGENCE, Rate 125 g/ha)
60: Plant response rating, Cmn Ragweed (common ragweed; POSTEMERGENCE, Rate 125 g/ha)
90: Plant response rating, Goosegrass (goosegrass; PREEMERGENCE, Rate 125 g/ha)
100: Plant response rating, Cmn Purslane (common purslane; PREEMERGENCE, Rate 250 g/ha)
20: Plant response rating, Cmn Ragweed (common ragweed; POSTEMERGENCE, Rate 250 g/ha) | Plant response rating, Dallisgrass (dallisgrass; PREEMERGENCE, Rate 250 g/ha) | Plant response rating, Smooth Crabgras (smooth crabgrass; PREEMERGENCE, Rate 250 g/ha)
0: Plant response rating, Yellow Nutsedge (yellow nutsedge; POSTEMERGENCE) | Plant response rating, Yellow Nutsedge (yellow nutsedge; PREEMERGENCE) | Plant response rating, Alfalfa Var. (alfalfa; POSTEMERGENCE, Rate 125 g/ha) | Plant response rating, Alfalfa Var. (alfalfa; POSTEMERGENCE, Rate 250 g/ha) | Plant response rating, Alfalfa Var. (alfalfa; PREEMERGENCE, Rate 125 g/ha) | Plant response rating, Alfalfa Var. (alfalfa; PREEMERGENCE, Rate 250 g/ha) | Plant response rating, S. Sandbur (sandbur; POSTEMERGENCE, Rate 125 g/ha) | Plant response rating, S. Sandbur (sandbur; POSTEMERGENCE, Rate 250 g/ha) | Plant response rating, S. Sandbur (sandbur; PREEMERGENCE, Rate 125 g/ha) | Plant response rating, S. Sandbur (sandbur; PREEMERGENCE, Rate 250 g/ha) | Plant response rating, Goosegrass (goosegrass; POSTEMERGENCE, Rate 125 g/ha) | Plant response rating, Goosegrass (goosegrass; POSTEMERGENCE, Rate 250 g/ha) | Plant response rating, Bermudagrass (bermudagrass; POSTEMERGENCE, Rate 125 g/ha) | Plant response rating, Bermudagrass (bermudagrass; POSTEMERGENCE, Rate 250 g/ha) | Plant response rating, Bermudagrass (bermudagrass; PREEMERGENCE, Rate 125 g/ha) | Plant response rating, Cmn Ragweed (common ragweed; PREEMERGENCE, Rate 125 g/ha) | Plant response rating, Cmn Ragweed (common ragweed; PREEMERGENCE, Rate 250 g/ha) | Plant response rating, Ann Bluegrass (annual bluegrass; POSTEMERGENCE, Rate 125 g/ha) | Plant response rating, Ann Bluegrass (annual bluegrass; POSTEMERGENCE, Rate 250 g/ha) | Plant response rating, Ann Bluegrass (annual bluegrass; PREEMERGENCE, Rate 125 g/ha) | Plant response rating, Ann Bluegrass (annual bluegrass; PREEMERGENCE, Rate 250 g/ha) | Plant response rating, Pit Morninglory (pitted morningglory; POSTEMERGENCE, Rate 125 g/ha) | Plant response rating, Pit Morninglory (pitted morningglory; POSTEMERGENCE, Rate 250 g/ha) | Plant response rating, Pit Morninglory (pitted morningglory; PREEMERGENCE, Rate 125 g/ha) | Plant response rating, Pit Morninglory (pitted morningglory; PREEMERGENCE, Rate 250 g/ha) | Plant response rating, Purple Nutsedge (purple nutsedge; POSTEMERGENCE) | Plant response rating, Purple Nutsedge (purple nutsedge; PREEMERGENCE) | Plant response rating, Large Crabgrass (large crabgrass; POSTEMERGENCE, Rate 125 g/ha) | Plant response rating, Large Crabgrass (large crabgrass; POSTEMERGENCE, Rate 250 g/ha) | Plant response rating, Large Crabgrass (large crabgrass; PREEMERGENCE, Rate 125 g/ha) | Plant response rating, Guineagrass (guineagrass; POSTEMERGENCE, Rate 125 g/ha) | Plant response rating, Guineagrass (guineagrass; POSTEMERGENCE, Rate 250 g/ha) | Plant response rating, Guineagrass (guineagrass; PREEMERGENCE, Rate 125 g/ha) | Plant response rating, Guineagrass (guineagrass; PREEMERGENCE, Rate 250 g/ha) | Plant response rating, Peanuts (peanut; POSTEMERGENCE, Rate 125 g/ha) | Plant response rating, Peanuts (peanut; POSTEMERGENCE, Rate 250 g/ha) | Plant response rating, Peanuts (peanut; PREEMERGENCE, Rate 125 g/ha) | Plant response rating, Peanuts (peanut; PREEMERGENCE, Rate 250 g/ha) | Plant response rating, Cmn Purslane (common purslane; PREEMERGENCE, Rate 125 g/ha) | Plant response rating, Dallisgrass (dallisgrass; POSTEMERGENCE, Rate 125 g/ha) | Plant response rating, Dallisgrass (dallisgrass; POSTEMERGENCE, Rate 250 g/ha) | Plant response rating, Dallisgrass (dallisgrass; PREEMERGENCE, Rate 125 g/ha) | Plant response rating, Johnsongrass (johnsongrass; POSTEMERGENCE, Rate 125 g/ha) | Plant response rating, Johnsongrass (johnsongrass; POSTEMERGENCE, Rate 250 g/ha) | Plant response rating, Johnsongrass (johnsongrass; PREEMERGENCE, Rate 125 g/ha) | Plant response rating, Johnsongrass (johnsongrass; PREEMERGENCE, Rate 250 g/ha) | Plant response rating, Smooth Crabgras (smooth crabgrass; POSTEMERGENCE, Rate 125 g/ha) | Plant response rating, Smooth Crabgras (smooth crabgrass; POSTEMERGENCE, Rate 250 g/ha) | Plant response rating, Smooth Crabgras (smooth crabgrass; PREEMERGENCE, Rate 125 g/ha) | Plant response rating, Itchgrass (itchgrass; POSTEMERGENCE, Rate 125 g/ha) | Plant response rating, Itchgrass (itchgrass; POSTEMERGENCE, Rate 250 g/ha) | Plant response rating, Itchgrass (itchgrass; PREEMERGENCE, Rate 125 g/ha) | Plant response rating, Itchgrass (itchgrass; PREEMERGENCE, Rate 250 g/ha)
